In patent US6603014B1, “Use of cyclic enamines as light protection agents” (BASF Aktiengesellschaft, priority 1999, dated 2003):

Assay: UV absorption properties (λmax and specific absorbance E 1/1) of the light protection agents
Assay type: physicochemical
Parameters: unit not given here
Excerpt: Further Examples 2 to 23 as in Tables 1, 2 and 3 are obtained analogously. Substituents in the aromatic rings can also be introduced later.

[1] = Table 3, specific absorbance at λmax
[2] = Table 1, specific absorbance at λmax
[3] = Table 2, specific absorbance at λmax

| λmax (Table 1, UV absorption maximum) | E^11 [2] | Structure (SMILES) | further results |
| --- | --- | --- | --- |
| – | – | CN1/C(=C(\C#N)C(=O)OCCS(=O)(=O)O)Sc2ccccc21 [Example 23] | λmax (Table 3, UV absorption maximum): 340; E^11 [1]: 1160 |
| 318 | 2055 | Cc1ccc2c(c1)NC(=C(C#N)C#N)N2 [Example 8] | – |
| 310 | 1778 | COC(=O)C(C#N)=C1Nc2ccccc2O1 [Example 11] | – |
| 332 | 952 | CCOC(=O)c1ccc2c(c1)NC(=C(C#N)C(=O)OC)N2 [Example 7] | – |
| – | – | CCCCOC(=O)C(C#N)=C1Sc2ccccc2N1CCCC [Example 18] | λmax (Table 2, UV absorption maximum): 340; E^11 [3]: 1250 |
| 334 | 821 | CCOC(=O)c1ccc2c(c1)NC(=C(C#N)C#N)N2 [Example 6] | – |
| 316 | 1986 | COC(=O)C(C#N)=C1Nc2ccccc2N1 [Example 3] | – |
| – | – | CC1CC(OC(=O)C(C#N)=C2Sc3ccccc3N2C)CC(C)(C)C1 (stereo not shown) [Example 14] | λmax (Table 2, UV absorption maximum): 340; E^11 [3]: 1090 |
| 308 | 1844 | N#CC(C#N)=C1Nc2ccccc2O1 [Example 10] | – |
| – | – | CCCCC(CC)COC(=O)/C(C#N)=C1\Sc2ccccc2N1C (stereo not shown) [Example 13] | λmax (Table 2, UV absorption maximum): 340; E^11 [3]: 1150 |
| – | – | COC(=O)/C(C#N)=C1\Sc2ccccc2N1CCCS(=O)(=O)O [Example 20] | λmax (Table 3, UV absorption maximum): 340; E^11 [1]: 1200 |
| 328 | 1601 | COC(=O)C(C#N)=C1Nc2ccc(OC)cc2N1 [Example 5] | – |
| – | – | COC(=O)C(C#N)=c1[nH]c2cccc3cccc([nH]1)c32 [Example 24] | λmax (Table 3, UV absorption maximum): 296; E^11 [1]: 1503 |
| – | – | CCCCCCN1C(=C(C#N)C(=O)OC2CC(C)CC(C)(C)C2)Sc2ccccc21 (stereo not shown) [Example 16] | λmax (Table 2, UV absorption maximum): 340; E^11 [3]: 790 |
| 326 | 1784 | COc1ccc2c(c1)NC(=C(C#N)C#N)N2 [Example 4] | – |
| – | – | CCCCCCN1C(=C(C#N)C(=O)OC)Sc2ccccc21 [Example 17] | λmax (Table 2, UV absorption maximum): 340; E^11 [3]: 1200 |
| – | – | CCCCCCN1C(=C(C#N)C(=O)OCC(CC)CCCC)Sc2ccccc21 (stereo not shown) [Example 15] | λmax (Table 2, UV absorption maximum): 340; E^11 [3]: 830 |
| 334 | 1776 | N#CC(C#N)=C1Nc2ccccc2S1 [Example 12] | – |
| 320 | 1854 | COC(=O)C(C#N)=C1Nc2ccc(C)cc2N1 [Example 9] | – |
| – | – | CCCCCCN1C(=C(C#N)C(=O)OC)N(CCCCCC)c2ccccc21 [Example 22] | λmax (Table 3, UV absorption maximum): 325; E^11 [1]: 970 |
| – | – | COC(=O)/C(C#N)=C1\Nc2ccc(C(=O)c3ccccc3)cc2N1 [Example 21] | λmax (Table 3, UV absorption maximum): 348; E^11 [1]: 740 |

| Structure (SMILES) | λmax (Table 1, UV absorption maximum) | E^11 [2] | further results |
| --- | --- | --- | --- |
| COC(=O)C(C#N)=C1Nc2ccccc2S1 [Example 1] | 336 | 1723 | – |
| N#CC(C#N)=C1Nc2ccccc2N1 [Example 2] | 314 | 2297 | – |
